Patent US6534514B1, “Kappa opioid receptor antagonists” (Regents of the University of Minnesota, priority 1993, dated 2003)
Read-outs that look alike come from different tables or passages of the source.

Key:
[1] = target: T1, kappa opioid receptors (Cavia porcellus, UniProt P41144); test: Guinea pig ileal longitudinal muscle (GPI), antagonism of ethylketazocine (EK); format: cell-based; settings: for Selectivity κ/μ: GPI EK versus GPI morphine; for Selectivity κ/δ: GPI EK versus MVD DADLE; for kappa antagonist potency compared with norBNI: GPI, EK; for Kb: 15 min incubation, Ke=[antagonist]/(IC50 ratio-1)
T1 construct: a strip of longitudinal muscle with the myenteric plexus attached was prepared; from tissue; host or cells: guinea pig ileal longitudinal muscle with myenteric plexus (Dunkin-Hartley males)
Protocol: (§1) Physiological data for guinea pig ileal longitudinal muscle (GPI) was obtained by the methodology of H. P. Rang, “Stimulant Actions of Volatile Anaesthetics on Smooth Muscle,” Brit. […] In vivo assays were done s.c. on mice.
(§2) 1. Guinea Pig Ileal Longitudinal Muscle (GPI). Ilea from guinea pigs were taken approximately 10 cm from the ileocecal junction, and a strip of longitudinal muscle with the myenteric plexus attached was prepared by the method of […] et al., Brit. […] A 1 cm portion of this strip was then mounted between two platinum electrodes placed in a 10 ml organ bath and connected to an isometric transducer; contractions were recorded on a polygraph. Contractions of the ileal strip were initiated by supramaximal rectangular pulses in all preparations (80 V of 0.5 ms duration at a frequency of 0.1 Hz). […] The organ bath was maintained at 36°-37° C. The longitudinal muscle strip was allowed to equilibrate with continuous stimulation for a minimum of 90 min. Cumulative concentration-response curves were determined after drugs were added to the bath in preselected amounts and washed out with buffer after noting their maximum effects.
(§3) Concentration-response curves were obtained in the absence (control) and the presence of the antagonist are expressed as IC50 values. The IC50 ratio represents the IC50 in the presence of the antagonist divided by the control IC50 value in the same tissue. Therefore, a high IC50 ratio represents a correspondingly high degree of antagonism at a particular receptor. This IC50 ratio was employed to calculate the Ke value using the equation Ke=[antagonist]/(IC50 ratio-1). Therefore, a low Ke represents a correspondingly high degree of binding at a particular receptor.

[2] = target: mu opioid receptors; settings: agonist morphine
Protocol: as §1, §2, §3

[3] = target: delta opioid receptors (Mus musculus, UniProt P32300); test: Mouse vas deferens (MVD), antagonism of DADLE (D); format: cell-based; design: Both vasa deferentia were dissected out of mice and mounted singly; from tissue; host or cells: mouse vas deferens (Swiss-Webster males) for A3; whole mouse in vivo for A7; settings: antagonist 100 nM; agonist DADLE
Protocol: 2. Mouse Vas Deferens (MVD). This assay was performed according to the description by G. Henderson et al., Brit. […] Both vasa deferentia were dissected out of mice and mounted singly through two platinum ring electrodes in a 10 ml organ bath. The bath contained Krebs bicarbonate solution that was continuously bubbled with 95% O2 and 5% CO2. The organ bath was maintained at 37° C. The tissue was attached to an isometric transducer and stimulated transmurally with rectangular pulses ([…], 1 ms duration, supramaximal voltage). Drugs were added cumulatively to the bath in preselected amounts and washed out after noting their maximum effects.
as §3

[4] = tested on: rats that were selectively bred for high voluntary ethanol drinking; settings: compared to peptidyl delta-opioid receptor antagonists; cited from earlier work
[5] = tested on: rat model of alcoholism; settings: cited from earlier work
[6] = recovering alcoholics; cited from earlier work
[7] = target: delta opioid receptor (Rattus norvegicus, UniProt P33533); settings: cited from earlier work
[8] = antagonist 100 nM, agonist ethylketazocine
[9] = antagonist 100 nM, IC50 agonist + antagonist/IC50 agonist, agonist ethylketazocine
[10] = antagonist 10 nM, agonist ethylketazocine

T1 sequence (P41144 whole entry): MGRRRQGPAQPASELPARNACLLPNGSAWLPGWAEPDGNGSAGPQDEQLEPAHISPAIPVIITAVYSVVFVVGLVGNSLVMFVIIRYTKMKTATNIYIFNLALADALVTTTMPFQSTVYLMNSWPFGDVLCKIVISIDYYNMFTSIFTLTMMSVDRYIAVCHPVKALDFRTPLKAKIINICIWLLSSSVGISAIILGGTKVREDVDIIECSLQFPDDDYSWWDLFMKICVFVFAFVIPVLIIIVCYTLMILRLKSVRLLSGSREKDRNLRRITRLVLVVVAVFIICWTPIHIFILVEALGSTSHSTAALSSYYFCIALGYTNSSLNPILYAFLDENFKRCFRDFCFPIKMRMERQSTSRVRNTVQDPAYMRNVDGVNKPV
Sequence of delta opioid receptors (P32300 whole entry): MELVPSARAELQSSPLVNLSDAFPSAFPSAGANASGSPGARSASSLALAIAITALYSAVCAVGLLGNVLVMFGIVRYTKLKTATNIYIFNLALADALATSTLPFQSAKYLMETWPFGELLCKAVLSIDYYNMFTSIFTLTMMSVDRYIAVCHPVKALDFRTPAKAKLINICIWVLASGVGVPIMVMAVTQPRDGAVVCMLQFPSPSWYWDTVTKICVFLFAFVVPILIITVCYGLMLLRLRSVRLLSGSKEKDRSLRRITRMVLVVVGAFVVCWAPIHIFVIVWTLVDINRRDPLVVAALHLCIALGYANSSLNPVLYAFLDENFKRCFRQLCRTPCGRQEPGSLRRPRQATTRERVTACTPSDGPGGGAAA
Sequence of delta opioid receptor (P33533 whole entry): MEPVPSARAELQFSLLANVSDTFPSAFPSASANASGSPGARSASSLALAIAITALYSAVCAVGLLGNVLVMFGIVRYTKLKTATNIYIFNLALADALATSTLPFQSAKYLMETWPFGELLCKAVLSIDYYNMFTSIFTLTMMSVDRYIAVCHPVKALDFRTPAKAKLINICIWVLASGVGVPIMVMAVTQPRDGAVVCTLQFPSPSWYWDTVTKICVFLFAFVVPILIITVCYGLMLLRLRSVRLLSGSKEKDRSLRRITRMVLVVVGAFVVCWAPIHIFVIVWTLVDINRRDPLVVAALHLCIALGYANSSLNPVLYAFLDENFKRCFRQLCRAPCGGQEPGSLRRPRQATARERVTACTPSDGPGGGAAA

Compound	Selectivity κ/μ [1]	Selectivity κ/δ [1]	kappa antagonist potency compared with norBNI [1]	Kb [1, 8] [nM]	IC50 ratio, EK (GPI) [1, 9]	IC50 ratio, M (GPI) ([2]; antagonist 100 nM)	Ke, M (GPI) ([2]; antagonist 100 nM) [nM]	IC50 ratio, D (MVD) [3]	other results
17-(Cyclopropylmethyl)-6,7-dehydro-4,5α-epoxy-3,14-dihydroxy-5 ′-[N^2-(4-dimethylaminobutyrylamidino)methyl]-6,7-2′,3′-indolomorphinan Trihydrochloride [Compound 44]	61	250	more potent	0.147	679 ± 273	12.1 ± 3.4	9.01	2.71 ± 0.44	kappa selectivity compared with norBNI ([1]; GPI/MVD): more selective; potency and selectivity among the compounds ([1]; GPI/MVD): greatest poteny and selectivity; potency and selectivity compared with norBNI ([1]; GPI/MVD): more potent and selective
17-(Cyclopropylmethyl)-6,7-dehydro-4,5α-epoxy-3,14-dihydroxy-5′-[(N^2-3-methylpentanamidino)methyl]-6,7-2′,3′-indolomorphinan Dihydrochloride [Compound 2]	12	310	more potent	0.25	394 ± 97	31.6 ± 10.7	3.27	1.19 ± 0.51	–
17-(Cyclopropylmethyl)-6,7-dehydro-4,5α-epoxy-3,14-dihydroxy-5′-[(N^2-acetamidino)methyl]-6,7-2′,3′-indolomorphinan Dihydrochloride [Compound 3]	9	44	–	0.81	124 ± 33	13.4 ± 2.2	8.04	2.81 ± 0.62	–
17-(Cyclopropylmethyl)-6,7-dehydro-4,5α-epoxy-3,14-dihydroxy-5′-[(N^2-butyramidino)methy]-6,7-2′,3′-indolomorphinan Dihydrochloride [Compound 5]	10	62	more potent	0.54	185 ± 49	18.2 ± 3.9	5.84	3.00 ± 0.51	–
17-(Cyclopropylmethyl)-6,7-dehydro-4,5α-epoxy-3,14-dihydroxy-5′-[(N^2-propanamidino)methyl]-6,7-2′,3′-indolomorphinan Dihydrochloride [Compound 1]	14	69	–	0.66	159 ± 43	11.3 ± 2.6	9.71	2.28 ± 0.57	–
17-(Cyclopropylmethyl)-6,7-dehydro-4,5α-epoxy-3,14-dihydroxy-5′-[N-(β-diethylamino)ethylcarboxyamido]-6,7-2′,3′-indolomorphinan Dihydrochloride [Compound 38]	16	329	more potent	–	–	–	–	1.95 ± 0.56	IC50 ratio, EK (GPI) [1, 10]: 31.8 ± 7.7; Ke, EK (GPI) [1, 10]: (10 nm) 0.320 nM; IC50 ratio, M (GPI) ([2]; antagonist 50 nM): 17.1 ± 2.1; Ke, M (GPI) ([2]; antagonist 50 nM): (50 nm) 3.14 nM
17-(Cyclopropylmethyl)-6,7-dehydro-4,5α-epoxy-3,14-dihydroxy-5′-[N-(β-dimethylamino)ethylcarboxamido]-6,7-2′,3′-indolomorphinan Dihydrochloride [Compound 45]	6	117	–	0.568	177 ± 54	30.3 ± 3.6	3.41	1.51 ± 0.42	–
17-(Cyclopropylmethyl)-6,7-dehydro-4,5α-epoxy-3,14-dihydroxy-5′-[N^2-(N,N-dimethylglycinamidino)methyl]-6,7-2′,3′-indolomorphinan Trihydrochloride [Compound 42]	55	111	more potent	0.183	547 ± 125	10.0 ± 0.4	11.1	4.91 ± 1.38	kappa selectivity compared with norBNI ([1]; GPI/MVD): more selective; potency and selectivity compared with norBNI ([1]; GPI/MVD): more potent and selective; Ke, D (MVD) [3]: 25.6 nM
17-(Cyclopropylmethyl)-6,7-dehydro-4,5α-epoxy-3,14-dihydroxy-51′-[(4-dimethylaminobutyryl)aminomethyl]-6,7-2′,3′-indolomorphinan Dihydrochloride [Compound 43]	10	166	more potent	0.505	199 ± 62	19.0 ± 6.2	5.56	1.20 ± 0.72	–
Oc1ccc2c3c1O[C@H]1c4oc5ccccc5c4C[C@@]4(O)[C@@H](C2)N(CC2CC2)CC[C@]314 [NTB]	–	–	–	–	–	–	–	–	suppression of ethanol drinking [4]: unexpectedly prolonged suppression of ethanol drinking
Oc1ccc2c3c1O[C@H]1c4[nH]c5ccccc5c4C[C@@]4(O)[C@@H](C2)N(CC2CC2)CC[C@]314 [NTI, naltrindole]	–	–	–	–	–	–	–	–	suppression of ethanol drinking [4]: unexpectedly prolonged suppression of ethanol drinking
C=CCN1CC[C@]23c4c5ccc(O)c4O[C@H]2C(=O)CC[C@@]3(O)[C@H]1C5 [Naloxone, naloxone]	–	–	–	–	–	–	–	–	ethanol and water intake [5]: suppress ethanol but not water intake
O=C1CC[C@@]2(O)[C@H]3Cc4ccc(O)c5c4[C@@]2(CCN3CC2CC2)[C@H]1O5 [naltrexone]	–	–	–	–	–	–	–	–	incidence of relapse [6]: reduce the incidence of relapse
Oc1ccc2c3c1OC1c4[nH]c5c(c4CC4(O)C(C2)N(CC2CC2)CC[C@]314)C[C@@]1(O)C2Cc3ccc(O)c4c3[C@@]1(CCN2CC1CC1)[C@H]5O4 (some centres unmarked) [norBinaltorphimine, reference compound]	–	–	–	0.56	–	–	14	–	–
N,N-diallyl-Tyr-Aib-Aib-Phe-Leu-OH [ICI 174864]	–	–	–	–	–	–	–	–	duration of action ([7]; ethanol drinking): very short duration of action; ethanol drinking ([7]; in vivo): strongly inhibits ethanol drinking
